Where two headings read alike, the source gives them in different places.
Assays:
Format in all cases: cell-based
[1] = Inhibition of RPMI-8226 cell proliferation (CellTiter luminescent viability); conditions: Homo sapiens, read-out: Inhibition Rate at 10 nM (%)
[2] = tested on: Human B-Cell Lymphoma Cells (RPMI-8226); test: as above; conditions: RPMI-8226, 500 nM, read-out: Inhibition Rate at 500 nM (%)
[3] = tested on: Human lung cancer cell line (H292); test: Inhibition of H292 cell proliferation (CellTiter luminescent viability); conditions: NCI-H292, Table IM1, CDK9 inhibitor-based, 96 hours; for inhibition at 0.01 µM: H292, 10 nM, read-out: Inhibition Rate at 10 nM (%); for inhibition at 0.5 µM: H292, 500 nM, read-out: Inhibition Rate at 500 nM (%)
Experimental: The tumor cells used herein were cultured in a cell culture medium listed in table 3 at 37 °C in an incubator with 5% CO2. Prior to experimentation, all cell lines used were correctly identified by STR profiling, and tested negative for mycoplasma contamination using a mycoplasma detection kit through routine screenings.
The IC50 values of the compounds of the present disclosure (including the compounds in Table 1, Table 2, and Examples 1-468) were determined using the CellTiter-Meiluncell Luminescent Cell Viability Assay Kit from Dalian Meilun Biotech Co., Ltd. The detailed procedure is as follows: Tumor cells were seeded in 96-well cell culture plates at the densities specified in Table 4. On the following day, the test compounds of the present disclosure were subjected to serial dilution. The dilution can be performed according to one of the following two methods: • (1) The first dilution method: The test compounds of the present disclosure (including the compounds in Table 1, Table 2, and Examples 1-468) were subjected to 5-fold serial dilutions starting from a highest concentration of 2000 μM, resulting in a total of 9 concentrations from high to low (2000, 400, 80, 16, 3.2, 0.64, 0.128, 0.0256, 0.00512 μM). Subsequently, 0.5 μL of the test compound dilution was transferred into the 96-well plate containing the cells, with each well containing 100 μL of cell culture medium. […] Into the 96-well plate, the diluted test compounds and corresponding detection reagents were added, resulting in final test compound concentrations of 500 nM and 10 nM, respectively. The experimental procedure is described below using the diluted 2 μM test compound as an example.
0.5 μL of the aforementioned diluted compound of the present disclosure (including the compounds in Table 1, Table 2, and Examples 1-468) was added to the seeded cells in 100 μL of medium, yielding a final test compound concentration of 10 nM. After the cells were treated with the compounds of the present disclosure for a specified period, the cell viability assay reagent was added to the culture medium according to the kit's instructions to determine cell viability. […] All controls were treated using the same procedure as the compounds of the present disclosure. The growth inhibition curves for the compounds of the present disclosure were plotted using Prism GraphPad software, and the IC50 values were calculated therefrom.

[4] = tested on: Human Acute T Lymphoblastic Leukemia Cells (Molt-4); test: Inhibition of Molt-4 cell proliferation (CellTiter luminescent viability); conditions: Homo sapiens, MOLT-4, 96 h, Table IA2, IRAK4 inhibitor-based, 96 hours; for inhibition at 0.01 µM: Molt-4, 10 nM, read-out: Inhibition Rate at 10 nM (%); for inhibition at 0.5 µM: Molt-4, 500 nM, read-out: Inhibition Rate at 500 nM (%)
IRAK4 = target: T1, IRAK4 (Homo sapiens, UniProt Q9NWZ3); test: Western blot degradation of IRAK4; conditions: hPBMC Cell; 24 hours
T1 construct: expression of target proteins in cells; endogenous in cells
T1 sequence (Q9NWZ3 1-460): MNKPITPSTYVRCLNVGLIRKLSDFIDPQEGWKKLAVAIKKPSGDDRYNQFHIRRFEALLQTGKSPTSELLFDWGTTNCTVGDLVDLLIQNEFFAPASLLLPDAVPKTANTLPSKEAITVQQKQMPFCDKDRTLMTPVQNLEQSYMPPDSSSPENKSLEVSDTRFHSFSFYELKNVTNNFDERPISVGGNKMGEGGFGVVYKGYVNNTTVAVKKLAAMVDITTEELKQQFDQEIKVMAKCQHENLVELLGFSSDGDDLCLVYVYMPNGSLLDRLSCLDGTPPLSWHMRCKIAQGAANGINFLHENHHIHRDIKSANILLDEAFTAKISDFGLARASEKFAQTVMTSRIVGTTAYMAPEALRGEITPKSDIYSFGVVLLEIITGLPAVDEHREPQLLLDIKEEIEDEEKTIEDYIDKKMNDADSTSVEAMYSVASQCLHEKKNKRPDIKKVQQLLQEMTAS
Outline: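 Cells treated with compound, lysed, and target protein detected by Western blot (SDS-PAGE, nitrocellulose transfer). DC50 taken as the concentration giving band grayscale half that of DMSO control, estimated by concentration-response fitting; remaining protein (%) from target band normalised to internal control band; degradation (%) = 1 − remaining.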

[5] = tested on: Human myeloid monocytic leukemia cell line (MV-4-11); test: Inhibition of MV-4-11 cell proliferation (CellTiter luminescent viability); conditions: Homo sapiens, MV4-11, Table IA3, IRAK4 inhibitor-based, 96 hours
Outline: (§1)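 Cells are seeded in 96-well plates, cultured at 37 °C, 5% CO2, and treated next day with 5-fold serial compound dilutions (stock series from 2000 μM; 0.5 μL into 100 μL medium). Viability is read by CellTiter-Meiluncell luminescence after the set exposure, and IC50 is taken from growth-inhibition curves.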

[6] = tested on: Human Multiple myeloma cell line (MM.1S); test: Inhibition of MM.1S cell proliferation (CellTiter luminescent viability); conditions: Homo sapiens, MM1.S, Table IA5, IRAK4 inhibitor-based, 96 hours
Outline: as §1

[7] = Table IA4, IRAK4 inhibitor-based, RPMI-8226, 10 nM, 96 hours
[8] = Table IA4, IRAK4 inhibitor-based, 96 hours

Degradation of substrate protein IRAK4 (substrate protein remaining %) (IRAK4)	SMILES	inhibition at 0.01 µM ([1]; RPMI-8226, 10 nM) [%]	inhibition at 0.5 µM [2] [%]	inhibition at 0.01 µM [3] [%]	inhibition at 0.5 µM [3] [%]	inhibition at 0.01 µM [1, 7] [%]	inhibition at 0.5 µM [2, 8] [%]	inhibition at 0.01 µM [4] [%]	inhibition at 0.5 µM [4] [%]	inhibition at 0.01 µM ([5]; MV-4-11, 10 nM, read-out: Inhibition Rate at 10 nM (%)) [%]	inhibition at 0.5 µM ([5]; MV-4-11, 500 nM, read-out: Inhibition Rate at 500 nM (%)) [%]	inhibition at 0.01 µM ([6]; 10 nM, read-out: Inhibition Rate at 10 nM (%)) [%]	inhibition at 0.5 µM ([6]; 500 nM, read-out: Inhibition Rate at 500 nM (%)) [%]
A (0%≤substrate protein remaining %≤80%)	COc1cc2nn([C@H]3CC[C@H](CN4CCN(c5ccc6c(c5F)C(=O)N(N5CCC(=O)NC5=O)C6=O)CC4)CC3)cc2cc1NC(=O)c1cccc(C(F)(F)F)c1 [GT-08669, N-(2-((1r,4r)-4-((4-(2-(2,4-dioxotetrahydropyrimidin-1(2H)-yl)-4-fluoro-1,3-dioxoisoindolin-5-yl)piperazin-1-yl)methyl)cyclohexyl)-6-methoxy-2H-indazol-5-yl)-3-(trifluoromethyl)benzamide]	–	–	–	–	20 to 25	30 to 40	20 to 40	20 to 40	–	–	–	–
A (0%≤substrate protein remaining %≤80%)	O=C1CCN(N2Cc3cc(CN4CCN(c5ccc(-n6cc(NC(=O)c7coc(-c8ccnc(NCC(F)(F)F)c8)n7)c(C(F)F)n6)cc5)CC4)ccc3C2=O)C(=O)N1 [GT-05318, N-(3-(difluoromethyl)-1-(4-(4-((2-(2,4-dioxotetrahydropyrimidin-1(2H)-yl)-1-oxoisoindolin-5-yl)methyl)piperazin-1-yl)phenyl)-1H-pyrazol-4-yl)-2-(2-((2,2,2-trifluoroethyl)amino)pyridin-4-yl) oxazole-4-carboxamide]	–	–	–	–	20 to 25	60 to 80	3 to 7	40 to 60	80 to 100	100 to 110	10 to 15	60 to 80
A (0%≤substrate protein remaining %≤80%)	COc1cc2nn([C@H]3CC[C@H](CN4CCN(c5ccc6c(c5)C(=O)N(N5CCC(=O)NC5=O)C6=O)CC4)CC3)cc2cc1NC(=O)c1cccc(C(F)(F)F)c1 [GT-08661, N-(2-((1r,4r)-4-((4-(2-(2,4-dioxotetrahydropyrimidin-1(2H)-yl)-1,3-dioxoisoindolin-5-yl)piperazin-1-yl)methyl)cyclohexyl)-6-methoxy-2H-indazol-5-yl)-3-(trifluoromethyl)benzamide]	–	–	–	–	20 to 25	25 to 30	15 to 20	15 to 20	–	–	–	–
A (0%≤substrate protein remaining %≤80%)	COc1cc2nn([C@H]3CC[C@H](CN4CCN(C5CCN(c6ccc7c(c6)C(=O)N(N6CCC(=O)NC6=O)C7=O)CC5(F)F)CC4)CC3)cc2cc1NC(=O)c1cccc(C(F)(F)F)n1 (stereo partly shown) [GT-08659, N-(2-((1r,4r)-4-((4-(1-(2-(2,4-dioxotetrahydropyrimidin-1(2H)-yl)-1,3-dioxoisoindolin-5-yl)-3,3-difluoropiperidin-4-yl)piperazin-1-yl)methyl)cyclohexyl)-6-methoxy-2H-indazol-5-yl)-6-(trifluoromethyl) picolinamide]	–	–	–	–	15 to 20	30 to 40	10 to 15	20 to 40	–	–	–	–
A (0%≤substrate protein remaining %≤80%)	COc1cc2nn([C@H]3CC[C@H](CN4C5CCC4CN(c4ccc6c(c4)C(=O)N(N4CCC(=O)NC4=O)C6=O)C5)CC3)cc2cc1NC(=O)c1cccc(C(F)(F)F)c1 [GT-08667, N-(2-((1r,4r)-4-((3-(2-(2,4-dioxotetrahydropyrimidin-1(2H)-yl)-1,3-dioxoisoindolin-5-yl)-3,8-diazabicyclo[3.2.1]octan-8-yl)methyl)cyclohexyl)-6-methoxy-2H-indazol-5-yl)-3-(trifluoromethyl)benzamide]	–	–	–	–	20 to 25	30 to 40	20 to 40	20 to 40	–	–	–	–

More lines, now with the values behind:

SMILES	Degradation of substrate protein IRAK4 (substrate protein remaining %) (IRAK4)	inhibition at 0.01 µM ([1]; RPMI-8226, 10 nM) [%]	inhibition at 0.5 µM [2] [%]	inhibition at 0.01 µM [3] [%]	inhibition at 0.5 µM [3] [%]	inhibition at 0.01 µM [1, 7] [%]	inhibition at 0.5 µM [2, 8] [%]	inhibition at 0.01 µM [4] [%]	inhibition at 0.5 µM [4] [%]	inhibition at 0.01 µM ([5]; MV-4-11, 10 nM, read-out: Inhibition Rate at 10 nM (%)) [%]	inhibition at 0.5 µM ([5]; MV-4-11, 500 nM, read-out: Inhibition Rate at 500 nM (%)) [%]	inhibition at 0.01 µM ([6]; 10 nM, read-out: Inhibition Rate at 10 nM (%)) [%]	inhibition at 0.5 µM ([6]; 500 nM, read-out: Inhibition Rate at 500 nM (%)) [%]
N#CC1(CNc2cccc(-c3cc(NC4CCN(Cc5ccc6c(c5)C(=O)N(N5CCC(=O)NC5=O)C6=O)CC4)ncc3Cl)n2)CCOCC1 [GT-08215, 4-(((5′-chloro-2′-((1-((2-(2,4-dioxotetrahydropyrimidin-1(2H)-yl)-1,3-dioxoisoindolin-5-yl)methyl)piperidin-4-yl)amino)-[2,4′-bipyridin]-6-yl)amino)methyl)tetrahydro-2H-pyran-4-carbonitrile]	–	20 to 30	20 to 30	20 to 30	20 to 30	–	–	–	–	–	–	–	–
O=C1CCN(N2Cc3cc(CN4CCN(c5ccc(CC(=O)Nc6cc(C7CCC7)[nH]n6)cc5)CC4)ccc3C2=O)C(=O)N1 [GT-08229, N-(5-cyclobutyl-1H-pyrazol-3-yl)-2-(4-(4-((2-(2,4-dioxotetrahydropyrimidin-1(2H)-yl)-1-oxoisoindolin-5-yl)methyl)piperazin-1-yl)phenyl)acetamide]	–	10 to 20	10 to 20	20 to 30	30 to 40	–	–	–	–	–	–	–	–
O=C(NC1CCNCC1)c1[nH]ncc1NC(=O)c1c(Cl)cccc1Cl [AT7519, reference compound]	–	0 to 5	-20 to -15	-5 to 0	5 to 10	–	–	–	–	–	–	–	–
Cn1ncc(-c2nc(NC3CCN(Cc4ccc5c(c4)CN(N4CCC(=O)NC4=O)C5=O)CC3)ncc2Cl)c1CC1CC1 [GT-08212, 1-(5-((4-((5-chloro-4-(5-(cyclopropylmethyl)-1-methyl-1H-pyrazol-4-yl)pyrimidin-2-yl)amino)piperidin-1-yl)methyl)-1-oxoisoindolin-2-yl)dihydropyrimidine-2,4 (1H,3H)-dione]	–	20 to 30	5 to 10	20 to 30	30 to 40	–	–	–	–	–	–	–	–
Cn1ncc(-c2nc(NC3CCN(CC4CCN(c5cccc6c5C(=O)N(N5CCC(=O)NC5=O)C6=O)CC4)CC3)ncc2Cl)c1CC1CC1 [GT-08347, 4-(4-((4-((5-chloro-4-(5-(cyclopropylmethyl)-1-methyl-1H-pyrazol-4-yl)pyrimidin-2-yl)amino)piperidin-1-yl)methyl)piperidin-1-yl)-2-(2,4-dioxotetrahydropyrimidin-1(2H)-yl)isoindoline-1,3-dione]	–	20 to 30	10 to 20	5 to 10	20 to 30	–	–	–	–	–	–	–	–

Reference: patent US20260364184A1, “COMPOUND BASED ON OXOISOINDOLINYL-SUBSTITUTED TETRAHYDROPYRIMIDINE-DIONE AND USE THEREOF” (GLUETACS THERAPEUTICS (SHANGHAI) CO., LTD., priority 2023, published 2026)
